The target of one series is T1, glu158-HFMO3-MBP (Homo sapiens, UniProt P31513).
T1 sequence (P31513 2-532): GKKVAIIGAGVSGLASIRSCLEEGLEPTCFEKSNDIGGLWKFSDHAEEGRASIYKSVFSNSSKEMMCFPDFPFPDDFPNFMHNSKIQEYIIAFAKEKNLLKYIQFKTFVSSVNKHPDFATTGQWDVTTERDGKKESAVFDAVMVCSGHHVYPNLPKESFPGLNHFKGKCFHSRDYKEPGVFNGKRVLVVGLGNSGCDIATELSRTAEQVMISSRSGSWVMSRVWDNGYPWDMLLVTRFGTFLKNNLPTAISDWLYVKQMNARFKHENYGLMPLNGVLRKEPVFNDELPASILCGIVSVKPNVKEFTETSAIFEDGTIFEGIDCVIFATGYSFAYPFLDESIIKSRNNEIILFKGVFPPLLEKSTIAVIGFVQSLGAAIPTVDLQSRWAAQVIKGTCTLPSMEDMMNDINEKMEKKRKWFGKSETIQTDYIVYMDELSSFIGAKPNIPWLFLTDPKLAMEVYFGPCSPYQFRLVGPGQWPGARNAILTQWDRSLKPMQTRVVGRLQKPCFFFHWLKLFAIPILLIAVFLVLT
As to the kind of experiment: Substrate oxygenation by glu158-HFMO3-MBP fusion protein, HPLC. The note with it: glu158-HFMO3-MBP, N-oxygenation. The method, then: For HFMO3-MBP assay, all HFMO3-MBP incubations were done as follows: Into a test tube was added DETAPAC (1.2 mM, final concentration for a 250 μl reaction) followed by the addition of 60 μl NADPH generating system (0.4 mM NADP, 0.4 mM glucose-6-phosphate, and 20 μl of a 50 units mI^−1 glucose-6-phosphate dehydrogenase). The tube was chilled on ice and buffer and enzyme were added as described below for individual experiments to give a volume of 240 μl. The incubation was initiated by the addition of 5-DTP (10 μl of 5 mM) and placed in a shaking water bath at 37° C. for 10 min (unless specified otherwise). The incubation was stopped by the addition of 1.0 ml of ice-cold CH2Cl2. Following the addition of sodium carbonate (approx. 20 mg), the culture tube was vortexed, centrifuged (2000×g, 10 min), and the organic layer was removed and transferred to a 1.5 ml microfuge tube. The organic solvent was evaporated under a stream of Ar(g) to dryness and the residue was taken up in MeOH (300 μl) for determination HPLC analysis.
Data was analyzed with a Hitachi D-2500 integrator.
MTS-oxygenation assays were carried out under the same buffer, temperature, time and volume conditions, as for the N-oxygenation assays. The reactions were initiated upon addition of 10 μl of a 5 mM solution of MTS. The reaction was quenched with the addition of 700 μl of 80% CH3CN:20% hexane then 20 mg NaCl(s) and vortexed vigorously for 10 sec. The quenched reactions were then centrifuged briefly to separate the phases. The organic layer, containing product and substrate, was removed and used directly for HPLC analysis.
All other instruments used were the same as above for the N-oxygenation reactions. Conditions for elution were 50% CH3CN/H2O (v:v) with a flow rate gradient as follows: 1.5 ml min^−1 from 0 to 4 min., 1.5-2.5 ml min^−1 from 4 to 5 min, 2.5 ml min^−1 from 5 to 15 min.
Trimethylamine is commonly ingested in foodstuffs or it is available in the diet of humans from choline and other sources. Trimethylamine (TMA) is exclusively eliminated in humans by metabolism to trimethylamine N-oxide (TMANO). […]

The test system of a further series is Human Liver Microsomes. The series is described as follows: in vitro.

One may read the Km as the substrate concentration at which the rate is half of its maximum. On to `CN(C)CCCCCN1c2ccccc2Sc2ccc(C(F)(F)F)cc21` [Compound 5], for which the Michaelis constant (Km) at glu158-HFMO3-MBP is 108 µM. For the same compound, the Vmax at glu158-HFMO3-MBP (Lineweaver-Burke analysis) is given as 15.8 nmole/min/nmol of flavin. For the same compound, in the series on Human Liver Microsomes, the Km amounted to 6.8 µM; the “N-oxide formation, Human Liver Microsomes” value was 252.1 ± 38.6 pmol/min/mg of protein; the “S-oxide formation, Human Liver Microsomes” value is 32.5 ± 33.7 pmol/min/mg of protein; the “Vmax, Human Liver Microsomes” value was 0.098 nmol/min/mg of protein.

Values taken from patent US6762052B1, “DNA sequence encoding flavin-containing monooxygenase” (priority 1993, dated 2004).
